Source: publication PMC11249646, “Small-Molecule Disruptors of the Interaction between Calcium- and Integrin-Binding Protein 1 and Integrin αIIbβ3 as Novel Antiplatelet Agents” (ACS Pharmacology & Translational Science, 2024)
Where two headings read alike, the source gives them in different places.

What was measured:
Format in all cases: binding
[1] = target: T1, GST-CIB1 : F-scrambled peptide (Homo sapiens, UniProt Q99828); assay: FP scrambled-peptide counter screen, 384-well format; details: F-scrambled peptide; for IC50: read-out: 384-well COUNTERSCREEN IC50; for 384-well COUNTERSCREEN Confirm?: *: Curve in opposite direction
T1 construct: made in house; host or cells: BL-21 plus RIL cells (E. coli)
T1 sequence (Q99828 1-191): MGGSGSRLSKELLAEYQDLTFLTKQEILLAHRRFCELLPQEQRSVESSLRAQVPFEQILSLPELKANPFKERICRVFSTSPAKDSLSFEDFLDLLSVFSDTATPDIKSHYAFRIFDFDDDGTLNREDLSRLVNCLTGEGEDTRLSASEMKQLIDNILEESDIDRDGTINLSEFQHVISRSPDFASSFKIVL

[2] = target: T2, CIB1 and αIIb interaction (CIB1-GST : F-αIIb peptide) (Homo sapiens, UniProt Q99828); assay: FP assay, 1536-well qHTS format (primary and confirmatory screen); details: for CONFIRMATORY SCREEN Confirm?: YES/NO call; for CONFIRMATORY SCREEN Curve Class: qHTS curve class; for CONFIRMATORY SCREEN Curve Class / Curve Class: negative sign = inhibitory curve; for CONFIRMATORY SCREEN Efficacy (%) / Efficacy (%): negative = inhibition
T2 construct: made in house; host or cells: BL-21 plus RIL cells (E. coli)
T2 sequence (Q99828 1-191): T1 sequence (Q99828 1-191)

[3] = target: T1, GST-CIB1 : F-scrambled peptide; assay: FP scrambled-peptide counter screen, 1536-well format; details: scrambled-peptide counterscreen; for COUNTERSCREEN Confirm?: YES/NO call; for COUNTERSCREEN Curve Class: qHTS curve class; for IC50: read-out: COUNTERSCREEN IC50
[4] = target: T3, CIB1 and αIIb interaction (GST-CIB1 : F-αIIb peptide) (Homo sapiens, UniProt Q99828); assay: FP assay, 384-well format (screen); design: 384-well SCREEN Efficacy (%): concentration or dose not given beside the values; details: for 384-well SCREEN Efficacy (%) / 384-well SCREEN Confirm? / IC50: F-αIIb peptide; for 384-well SCREEN Confirm?: YES/NO; for IC50: read-out: 384-well SCREEN IC50; for Confirm and Selective?: selective toward αIIb: negative curve class and/or IC50 ratio of >3-fold and/or >2-fold efficacy vs scrambled peptide
T3 construct: made in house; host or cells: BL-21 plus RIL cells (E. coli)
T3 sequence (Q99828 1-191): T1 sequence (Q99828 1-191)

[5] = confirmatory screen, read-out: CONFIRMATORY SCREEN IC50
[6] = qHTS primary screen hits, Table S2
[7] = qHTS primary screen hits, Table S2, read-out: IC50
[8] = qHTS FP screen hits, Table S2, one class per curve where COUNT > 1
[9] = qHTS FP screen hits, Table S2, read-out: IC50
[10] = qHTS primary screen hits, Table S2, several classes where COUNT > 1

Row | Compound | 384-well COUNTERSCREEN Efficacy (%) [1] | IC50 [1] | CONFIRMATORY SCREEN Confirm? ([2]; confirmatory screen) | CONFIRMATORY SCREEN Curve Class ([2]; confirmatory screen) | CONFIRMATORY SCREEN Efficacy (%) ([2]; confirmatory screen) | IC50 [2, 5] | Efficacy (%) [2, 6] | IC50 [2, 7] | COUNTERSCREEN Efficacy (%) [3] | COUNTERSCREEN Confirm? [3] | COUNTERSCREEN Curve Class [3] | 384-well SCREEN Efficacy (%) [4] | 384-well SCREEN Confirm? [4] | IC50 [4] | 384-well COUNTERSCREEN Confirm? [1] | Curve Class [2, 10] | other results
1 | Cc1ccc(S(=O)(=O)Nc2cc([N+](=O)[O-])ccc2C(=O)Nc2nc(-c3ccccc3)cs2)cc1.O=C(O)C(F)(F)F [NCGC00262992-01] | 115% | 79.4 µM | YES | -1.1 | -97% | 5.6 µM | -34% | 10 µM | 42% | YES | 4 | 135% | YES | > 120 µM | – | – | Curve Class [2, 6]: -2.4
2 | O=C(O)C(F)(F)F.O=S(=O)(Nc1nc2n(n1)C(c1ccccc1)C=C(c1ccc(Cl)cc1)N2)c1ccccc1 (centres unmarked) [NCGC00100537-04] | 80% | 50.1 µM | YES | -2.2 | -81% | 39.8 µM | – | – | 10% | YES | 4 | 85% | YES | 50.1 µM | – | – | Efficacy (%) ([2]; qHTS FP screen hits, Table S2): -125%; Curve Class [2, 8]: -1.1; IC50 [2, 9]: 22.4 µM
3 | Cn1sc(=O)n(Cc2ccccc2)c1=O [NCGC00165913-03] | -20% | > 120 µM | YES | -1.2 | -81% | 7.9 µM | – | – | -22% | YES | 4 | 90% | YES | 1.7 µM | YES | – | Efficacy (%) ([2]; qHTS FP screen hits, Table S2): -79%; Curve Class [2, 8]: -1.2; IC50 [2, 9]: 8.9 µM
4 | Cc1ccc(S(=O)(=O)Nc2nn3c(=O)c4ccccc4nc3s2)cc1C.O=C(O)C(F)(F)F [NCGC00187578-01] | 12% | > 120 µM | YES | -2.2 | -46% | 11.2 µM | -22% | 14.1 µM | 39% | YES | 4 | 27% | – | > 120 µM | – | -1.4 | –
5 | Cc1ccc(-c2cc(-c3nn(-c4nc(C(=O)O)cs4)c(CC4CC4)c3Cc3ccc(S(N)(=O)=O)c(F)c3)ccc2F)o1 [NCGC00389082-01] | 158% | 39.8 µM | YES | -3 | -77% | 28.2 µM | -40% | 22.4 µM | 154% | YES | – | 60% | YES | 4.5 µM | YES | -2.4 | IC50 [3]: 79.4 µM
6 | Cc1ccc(S(=O)(=O)Nc2cnccc2C(=O)Nc2nc(-c3ccc(Cl)cc3)cs2)cc1.O=C(O)C(F)(F)F [NCGC00318981-01] | 60% | 28.2 µM | YES | -1.2 | -69% | 28.2 µM | -35% | 31.6 µM | 53% | YES | 3 | 45% | – | > 120 µM | – | -1.2 | IC50 [3]: 89.1 µM
7 | C=CCNc1oc(-c2cccc3ccccc23)nc1C#N.O=C(O)C(F)(F)F [NCGC00068824-04] | 51% | 4.5 µM | YES | -1.2 | -78% | 15.8 µM | – | – | -19% | YES | 4 | 71% | YES | 4 µM | – | – | Efficacy (%) ([2]; qHTS FP screen hits, Table S2): -38%; Curve Class [2, 8]: -1.2; IC50 [2, 9]: 17.8 µM
8 | O=Cc1c(-c2ccccc2)no[n+]1[O-] [NCGC00168371-01] | 51% | 17.7 µM | YES | -1.2 | -69% | 22.4 µM | -73% | 50.1 µM | -14% | YES | 4 | 73% | YES | 14.1 µM | Inconclusive | – | Curve Class [2, 6]: -2.2; Confirm and Selective? [4]: Inconclusive
9 | O=C(CN(c1cccc(Br)c1)S(=O)(=O)c1ccccc1)NN=CC1=CC(=[N+]([O-])O)C=CC1=O.O=C(O)C(F)(F)F [NCGC00248455-01] | 52% | 15.8 µM | YES | -2.1 | -91% | 31.6 µM | -62% | 17.8 µM | -13% | YES | 4 | 40% | YES | 11.2 µM | – | – | Curve Class [2, 6]: -2.2
10 | CCOC(=O)N1CCN([N+]([O-])=NOc2ccc([N+](=O)[O-])cc2[N+](=O)[O-])CC1 [NCGC00165815-03] | 48% | 15.8 µM | YES | -1.2 | -62% | 6.3 µM | – | – | -56% | YES | -2.2 | 61% | YES | 1.8 µM | YES | – | IC50 [3]: 44.7 µM
11 | COC(=O)c1ccc2c(c1)S(=O)(=O)N=C2Sc1cc(C)ccc1C [NCGC00238687-01] | 45% | > 120 µM | YES | -1.2 | -59% | 28.2 µM | -49% | 39.8 µM | -10% | YES | 4 | 65% | YES | 11.2 µM | YES | -2.2 | –
12 | NS(=O)(=O)c1ccc(Cc2c(-c3cccc(-c4ccccc4F)c3)nn(-c3nc(C(=O)O)cs3)c2O)cc1.O=C(O)C(F)(F)F [NCGC00356464-01] | 34% | 10 µM | YES | -1.2 | -74% | 39.8 µM | -63% | 79.4 µM | -32% | YES | 4 | 57% | YES | 22.4 µM | Inconclusive | -2.2 | Confirm and Selective? [4]: Inconclusive
13 | N[C@@H](Cc1ccc(Oc2cc(I)c(O)c(I)c2)c(I)c1)C(=O)O [NCGC00344545-01] | 51% | 3.1 µM | YES | -1.2 | -60% | 15.8 µM | -39% | 39.8 µM | -19% | YES | 4 | 46% | YES | 10 µM | – | -2.2 | –
